For one series, the system named is P. falciparum (RB-1). Put plainly: Direct antimalarial activity, flow cytometry, strain RB-1. The format is cell-based, Plasmodium falciparum. Particulars: for activity against the malaria microorganism Plasmodium falciparum: summary statement; for inhibition at 0.5 µg/mL: Plasmodium falciparum, 0.5 μg/ml, 48 h, FIG. 2, read-out: inhibition of growth of P. falciparum. Here is the method:
To investigate the direct antimalarial activity of the riminophenazines B669, B4100, B4103, B4112, B4121, B4158 and B4169 against a laboratory strain of P. falciparum the following experiment was done:
A laboratory strain of P. falciparum (RB-1; obtained from Dr B L Sharp, National Malaria Research Programme, MRC, Durban) was maintained.
For these experiments malaria cultures of haematocrit 5.0% and initial parasitemia 2.0% were used. The malaria infected erythrocytes (ring stage) were incubated in microtitre plates with serial dilutions of B669, B4100, B4103, B4112, B4121, B4158 and B4169 (0.125-2 μg/ml) for 48 hours and processed for analysis on the flow cytometer as described in Example 3.

For a further series, the system named is P. falciparum (FAC 8). Put plainly: Flow cytometry parasitaemia, chloroquine resistant strain FAC 8, chloroquine with/without B4112. The format is cell-based, Plasmodium falciparum. Here is the method:
To test the activity of B4112 to reverse chloroquine resistance in Plasmodium falciparum, the following experiment was done:
A chloroquine resistant strain of P. falciparum (FAC 8) was obtained from Dr P Smith, University of Cape Town (originally from Dr A F Cowman, Royal Melbourne Hospital, Victoria, Australia).
Malaria infected erythrocytes (ring stage) were diluted with human O-positive red blood cells together with RPMI containing 44 mg/l hypoxanthine and 10% human type A serum to a parasitaemia of 2% and a haematocrit of 5%. This suspension was incubated in a gassed desiccator (5% O2, 5% CO2 and 90% N2) with serial dilutions of chloroquine ranging from 61-500 nM in 96-well microtitre culture plates for 48 hours in the presence or absence of a fixed concentration of B4112 (100 ng/ml). Relevant solvent controls were included.
At the end of the incubation period, 100 μl of the medium was removed from each well and replaced with a fixation solution containing 10 mM TRIS, 10 mM Na-Azide and 150 mM Na Cl. The plates were stored overnight at 4° C. and then 25 μl aliquots from each well were stained in test tubes with 0.5 ml thiazole orange at a concentration of 0.25 μg/ml in phosphate-buffered saline (PBS). After an incubation period of 1 hour at room temperature (in the dark), the tubes were placed on ice and the level of parasitaemia determined by flow cytometry using a Coulter Epics Profile II (Coulter Electronics Ltd, Hialeah, PLA, USA).
For orientation: Flow cytometry measures light scatter and fluorescence of single cells or particles in a stream.

In series [1] the test system is Plasmodium falciparum (Fab-9). Put plainly: Microscopic parasitaemia, chloroquine sensitive strain Fab-9 (reversal of chloroquine resistance). The format is cell-based. Particulars: 24 h. How it is done:
(§1) The activity of riminophenazines to reverse chloroquine resistance in Plasmodium falciparum was tested in the following manner:
(§2) A preliminary series of experiments were carried out using two laboratory strains of P. falciparum (RB-1 and Fab-9). These strains were obtained from the Medical Research Council, Durban, where they were characterised as being either mildly resistant or sensitive to chloroquine. The isolates were maintained in suspension culture in known manner (as described by Freese J A, Markus M B and Golenser J, 1991; Bulletin of the World Health Organization 69: 707-712).
(§3) Infected erythrocytes were diluted with human O-positive red blood cells to a parasitaemia of 0.2-0.9% and suspended to 3% in RPMI containing 44 mg/l hypoxanthine and 10% human type O serum. Aliquots (100 μl) of the suspension were dispensed into the wells of 96-well microtitre plates. To these suspensions 100 μl of the medium were added containing either chloroquine or B669 alone or in combination. The final drug concentrations were 31, 62, 125, 250 500 and 1000 nM for chloroquine and 0.125, 0.25, 0.5 and 1.0 μg/ml for B669. Relevant solvent controls were included. The plates were incubated for 24 hours at 38° C. in a desiccator gassed with 5% O2, 5% CO2 and 90% N2. Thin blood smears were prepared from each well, stained with Giemsa stain and the percentage of red blood cells infected by at least one parasite determined microscopically.

For series [2], the system named is Plasmodium falciparum (RB-9). Briefly: 3H-hypoxanthine uptake, chloroquine resistant strain (RB-9 [sic]). The format is cell-based. Particulars: read-out: PERCENTAGE INHIBITION (3H-hypoxanthine uptake).
Series [3] deals with Plasmodium falciparum (RB-9). Described as above. The format is cell-based. The settings on record: Plasmodium falciparum, read-out: PERCENTAGE INHIBITION (3H-hypoxanthine uptake). Here is the method:
(§4) The following experiment was done to confirm previous results which were obtained microscopically and details of which are set out in Example 1.
(§5) For this experiment the same two strains of P. falciparum, as used in Example 1 (RB-1 and Fab-9) were again used. Infected erythrocytes were diluted with human O-positive red blood cells to a parasitaemia of 0.2-0.9% and suspended to 3% in RPMI containing 44 mg/l hypxanthine and 10% human type serum. Aliquots (100 μl) of the suspension were dispensed into the wells of 96-well microtitre plates. To these suspensions 100 μl of the medium were added containing either chloroquine or B669 alone or a combination of chloroquine and B669. Relevant solvent controls were included. Negative control wells were also included containing uninfected red blood cells. The plates were incubated at 38° C. in a desiccator gassed with 5% O2, 5% CO2 and 90% N2. After 24 hours 100 μl culture medium of each well was replaced with […] of hypoxathine--free medium containing 10% human serum and 0,5μ Ci^3 H-hypoxanthine and incubated for a further 18 hours. The contents of the wells were then harvested on to glass fibre filters. The filters were washed with distilled water, dried, haemoglobin dissolved in a sodium bicarbonate solution and placed in scintillation vials containing 4 ml scintillation fluid and counted for 5 min in a liquid scintillation counter.
(§6) The percentage inhibition was calculated as follows: [formula] where CPM was the mean of two values of counts per minute for each treatment.

Series [4] has as its system Plasmodium falciparum (RB-1). Briefly: Microscopic parasitaemia, chloroquine resistant strain RB-1 (reversal of chloroquine resistance). Particulars: 24 h. The format is cell-based. How it is done: as §1, §2, §3
Series [5] concerns Plasmodium falciparum (Fab-9). Briefly: 3H-hypoxanthine uptake, chloroquine sensitive strain Fab-9. The format is cell-based. The settings on record: Plasmodium falciparum, read-out: PERCENTAGE INHIBITION (3H-hypoxanthine uptake). Here is the method: as §4, §5, §6
A further series relates to malaria parasites. Particulars: background, cited from earlier work.

Consider `CC1(C)CC(N=c2cc3n(-c4ccc(Cl)c(Cl)c4)c4ccccc4nc-3cc2Nc2ccc(Cl)c(Cl)c2)CC(C)(C)N1` [Compound B4100, N,5-bis(3,4-dichlorophenyl)-3,5-dihydro-3-[(2',2',6',6'-tetramethyl-4-piperidyl)-imino]-2-phenazinamine], for which the “activity against the malaria microorganism Plasmodium falciparum” value (“activity” below) with P. falciparum (RB-1) is reported as “good activity”.

As for `CC1(C)CC(N=c2cc3n(-c4ccc(C(F)(F)F)cc4)c4ccccc4nc-3cc2Nc2ccc(C(F)(F)F)cc2)CC(C)(C)N1` [Compound B4103, N,5-bis(4-trifluoromethylphenyl)-3,5-dihydro-3[(2',2',6',6'-tetramethyl-4-piperidyl)imino]-2-phenazinamine], the inhibition at 0.5 µg/mL in the series with P. falciparum (RB-1) was more than 50%.

Take `CC1(C)CC(N=c2cc3n(-c4cccc(Cl)c4)c4ccccc4nc-3cc2Nc2cccc(Cl)c2)CC(C)(C)N1` [Compound B4112, N,5-bis(3-chlorophenyl)-3,5-dihydro-3-[(2',2',6',6'-tetramethyl-4-piperidyl)-imino]-2-phenazinamine]: the “sensitivity of P. falciparum to chloroquine (inhibition)” value in the series on P. falciparum (FAC 8) (B4112 100 ng/ml + chloroquine 125 nM, FIG. 1) is 100%. The “inhibition of parasite growth” value with P. falciparum (FAC 8) (B4112 per se 100 ng/ml, 48 h) was determined as 27%. Further, the “interaction of B4112 and chloroquine” value in the series with P. falciparum (FAC 8) (FAC 8) is “clearly interacted synergistically”. For the same molecule, in the series on P. falciparum (RB-1), the inhibition at 0.5 µg/mL is more than 50% and the “activity” value is reported as “good activity”.

In the case of `CC1(C)CC(N=c2cc3n(-c4cc(Cl)cc(Cl)c4)c4ccccc4nc-3cc2Nc2cc(Cl)cc(Cl)c2)CC(C)(C)N1` [Compound B4121, N,5-bis(3,5-dichlorophenyl)-3,5-dihydro-3-[(2',2',6',6'-tetramethyl-4-piperidyl)-imino]-2-phenazinamine], the “activity” value in the series with P. falciparum (RB-1) was “good activity”.

For the molecule `CC(C)c1ccc(Nc2cc3nc4ccccc4n(-c4ccc(C(C)C)cc4)c-3cc2=NC2CC(C)(C)NC(C)(C)C2)cc1` [Compound B4158, N,5-bis(4-isopropylphenyl)-3,5-dihydro-3-[(2',2',6',6'-tetramethyl-4-piperidyl)-imino]-2-phenazinarnine], in the series with P. falciparum (RB-1), the inhibition at 0.5 µg/mL was more than 50% and the “activity” value is “good activity”.

`CCN(CC)CCCC(C)Nc1ccnc2cc(Cl)ccc12` (centres unmarked) [chloroquine, reference compound]: the “Percentage red blood cells infected with P. falciparum (Fab-9)” value worked out at 4.9% in series [1] (chloroquine 31 nM alone); 3.9% in series [1] (chloroquine 62 nM alone); 2.4% in series [1] (chloroquine 125 nM alone, *parasites morphologically abnormal); 3.1% in series [1] (chloroquine 250 nM alone, *parasites morphologically abnormal); 0.1% in series [1] (chloroquine 500 nM alone, *parasites morphologically abnormal); 0% in series [1] (chloroquine 1000 nM alone). In addition, the inhibition at 0.5 µM in series [2] and in series [5] was 100% throughout. Moreover, in the series with P. falciparum (FAC 8) (Plasmodium falciparum, 48 h, read-out: concentration at which chloroquine per se inhibited the growth of the parasite), the minimal effective concentration was not below 0.25 µM. Further, the inhibition at 0.125 µM with P. falciparum (FAC 8) (Plasmodium falciparum, read-out: sensitivity of P. falciparum to chloroquine (inhibition)) was determined as 33%; in series [3], 8%; in series [5] it was 48.7%. The inhibition at 0.031 µM in series [3] is 0%; in series [5], 52.5%. For the same molecule, the inhibition at 0.062 µM was 0% in series [3] and 23.5% in series [5]. For the same molecule, the inhibition at 0.25 µM in series [3] is 33%; in series [5] it was 66.9%. The inhibition at 1 µM in series [3] and in series [5] was 100% in each case. Moreover, the “Percentage red blood cells infected with P. falciparum (RB-1)” value in series [4] (chloroquine 31 nM alone) is 3.5%; in series [4] (chloroquine 62 nM alone), 3.3%; in series [4] (chloroquine 125 nM alone), 3.3%; in series [4] (chloroquine 250 nM alone) it was 3.1%; in series [4] (chloroquine 500 nM alone) it was 3.0%; in series [4] (chloroquine 1000 nM alone) it was 0.4%.

As to `COc1ccc(CCN(C)CCCC(C#N)(c2ccc(OC)c(OC)c2)C(C)C)cc1OC` (centres unmarked) [verapamil], the “reversal of Pg H1-mediated chloroquine resistance” value with malaria parasites is recorded as “can be reversed”. Besides, the “side effects of the dose required to reverse resistance” value in the series with malaria parasites (in vivo) is recorded as “severe side effects in vivo”.

One may read the inhibition as the relative decrease from the control value, in per cent.
